Experimental data published in the supplement of paper PMC10307832.

Experiments:
Assay in all cases: relative viability (nuclei count vs DMSO), 5 days (fraction); higher = more cells survive
[1] = system: NCI-H647
Summary of the method: (§1)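 Relative viability was taken as the ratio of nuclei in treated wells to nuclei in vehicle wells. Lung cancer cell lines in 1536-well plates received compounds by pin tool one day after seeding, either one drug alone or a fixed anchor-drug dose plus five library-drug doses (not always all listed) in √10 steps. Nuclei were counted on 4× images after 5 days of treatment, and values are medians of duplicate plates.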

[2] = system: NCI-H2085
Summary of the method: as §1

[3] = system: NCI-H1975
Summary of the method: as §1

[4] = system: COR-L23
Summary of the method: as §1

[5] = system: NCI-H596
Summary of the method: as §1

[6] = system: LCLC-103H
Summary of the method: as §1

[7] = system: HOP-62
Summary of the method: as §1

[8] = system: NCI-H1395
Summary of the method: as §1

[9] = system: LXF-289
Summary of the method: as §1

[10] = system: NCI-H650
Summary of the method: as §1

[11] = system: A-427
Summary of the method: as §1

[12] = system: RERF-LC-KJ
Summary of the method: as §1

[13] = system: CAL-12T
Summary of the method: as §1

[14] = system: NCI-H3122
Summary of the method: as §1

[15] = system: NCI-H1651
Summary of the method: as §1

[16] = system: SK-MES-1
Summary of the method: as §1

[17] = system: NCI-H2087
Summary of the method: as §1

[18] = system: NCI-H2023
Summary of the method: as §1

[19] = system: NCI-H2170
Summary of the method: as §1

[20] = system: COR-L 105
Summary of the method: as §1

[21] = system: NCI-H2342
Summary of the method: as §1

For `COCC1(CO)C(=O)C2CCN1CC2` (stereo not drawn) [PRIMA-1MET] + Cc1cc(Nc2cc(N3CCN(C)CC3)nc(Sc3ccc(NC(=O)C4CC4)cc3)n2)n[nH]1 [Tozasertib] (partner 0.1 µM), the relative viability ([1]; first compound 0.2 µM) was 0.615, the relative viability ([1]; first compound 0.6325 µM) was 0.324 and the relative viability ([1]; first compound 2 µM) was 0.263. It also gave a relative viability ([1]; first compound 6.325 µM) of 0.543, a relative viability ([1]; first compound 20 µM) of 0.0988 and a relative viability ([2]; first compound 0.2 µM) of 0.936. The relative viability ([2]; first compound 0.6325 µM) was 0.927, the relative viability ([2]; first compound 2 µM) was 0.84 and the relative viability ([2]; first compound 6.325 µM) was 0.828. For the same compound, the relative viability ([2]; first compound 20 µM) was 0.227, the relative viability ([3]; first compound 0.2 µM) was 1.05 and the relative viability ([3]; first compound 0.6325 µM) was 0.726. The relative viability ([3]; first compound 2 µM) was 0.878, the relative viability ([3]; first compound 6.325 µM) was 0.738 and the relative viability ([3]; first compound 20 µM) was 0.454. For the same compound, the relative viability ([4]; first compound 0.2 µM) was 0.223, the relative viability ([4]; first compound 0.6325 µM) was 0.285 and the relative viability ([4]; first compound 2 µM) was 0.212. It also gave a relative viability ([4]; first compound 6.325 µM) of 0.195, a relative viability ([4]; first compound 20 µM) of 0.0198 and a relative viability ([5]; first compound 0.2 µM) of 0.96. For the same compound, the relative viability ([5]; first compound 0.6325 µM) was 0.803, the relative viability ([5]; first compound 2 µM) was 0.869 and the relative viability ([5]; first compound 6.325 µM) was 1.02. It also gave a relative viability ([5]; first compound 20 µM) of 0.102, a relative viability ([6]; first compound 0.2 µM) of 0.554 and a relative viability ([6]; first compound 0.6325 µM) of 0.453. It also gave a relative viability ([6]; first compound 2 µM) of 0.393, a relative viability ([6]; first compound 6.325 µM) of 0.419 and a relative viability ([6]; first compound 20 µM) of 0.161. The relative viability ([7]; first compound 0.2 µM) was 0.426, the relative viability ([7]; first compound 0.6325 µM) was 0.341 and the relative viability ([7]; first compound 2 µM) was 0.38. For the same compound, the relative viability ([7]; first compound 6.325 µM) was 0.383, the relative viability ([7]; first compound 20 µM) was 0.305 and the relative viability ([8]; first compound 0.2 µM) was 0.823. It also gave a relative viability ([8]; first compound 0.6325 µM) of 0.556, a relative viability ([8]; first compound 2 µM) of 0.768 and a relative viability ([8]; first compound 6.325 µM) of 0.885. For the same compound, the relative viability ([8]; first compound 20 µM) was 0.518, the relative viability ([9]; first compound 0.2 µM) was 0.217 and the relative viability ([9]; first compound 0.6325 µM) was 0.173. For the same compound, the relative viability ([9]; first compound 2 µM) was 0.16, the relative viability ([9]; first compound 6.325 µM) was 0.175 and the relative viability ([9]; first compound 20 µM) was 0.192. For the same compound, the relative viability ([10]; first compound 0.2 µM) was 0.91, the relative viability ([10]; first compound 2 µM) was 0.639 and the relative viability ([10]; first compound 6.325 µM) was 0.749. For the same compound, the relative viability ([10]; first compound 20 µM) was 0.306, the relative viability ([11]; first compound 0.2 µM) was 0.163 and the relative viability ([11]; first compound 0.6325 µM) was 0.201. For the same compound, the relative viability ([11]; first compound 2 µM) was 0.203, the relative viability ([11]; first compound 6.325 µM) was 0.186 and the relative viability ([11]; first compound 20 µM) was 0.175. It also gave a relative viability ([12]; first compound 0.2 µM) of 0.53, a relative viability ([12]; first compound 0.6325 µM) of 0.523 and a relative viability ([12]; first compound 2 µM) of 0.58. The relative viability ([12]; first compound 6.325 µM) was 0.498, the relative viability ([12]; first compound 20 µM) was 0.431 and the relative viability ([13]; first compound 0.2 µM) was 0.339. The relative viability ([13]; first compound 0.6325 µM) was 0.275, the relative viability ([13]; first compound 2 µM) was 0.282 and the relative viability ([13]; first compound 6.325 µM) was 0.326. The relative viability ([13]; first compound 20 µM) was 0.263, the relative viability ([14]; first compound 0.2 µM) was 0.524 and the relative viability ([14]; first compound 0.6325 µM) was 0.361. It also gave a relative viability ([14]; first compound 6.325 µM) of 0.388, a relative viability ([14]; first compound 20 µM) of 0.337 and a relative viability ([15]; first compound 0.2 µM) of 0.848. It also gave a relative viability ([15]; first compound 0.6325 µM) of 0.66, a relative viability ([15]; first compound 2 µM) of 0.723 and a relative viability ([15]; first compound 6.325 µM) of 0.712. The relative viability ([15]; first compound 20 µM) was 0.649, the relative viability ([16]; first compound 0.2 µM) was 1.02 and the relative viability ([16]; first compound 0.6325 µM) was 0.888. It also gave a relative viability ([16]; first compound 2 µM) of 0.962, a relative viability ([16]; first compound 6.325 µM) of 0.876 and a relative viability ([16]; first compound 20 µM) of 0.907. It also gave a relative viability ([17]; first compound 0.2 µM) of 0.321, a relative viability ([17]; first compound 0.6325 µM) of 0.279 and a relative viability ([17]; first compound 2 µM) of 0.267. For the same compound, the relative viability ([17]; first compound 6.325 µM) was 0.271, the relative viability ([17]; first compound 20 µM) was 0.126 and the relative viability ([18]; first compound 0.2 µM) was 0.461. It also gave a relative viability ([18]; first compound 0.6325 µM) of 0.327, a relative viability ([18]; first compound 2 µM) of 0.389 and a relative viability ([18]; first compound 6.325 µM) of 0.359. It also gave a relative viability ([18]; first compound 20 µM) of 0.35, a relative viability ([19]; first compound 0.2 µM) of 0.9 and a relative viability ([19]; first compound 0.6325 µM) of 0.671. For the same compound, the relative viability ([19]; first compound 2 µM) was 0.677, the relative viability ([19]; first compound 6.325 µM) was 0.722 and the relative viability ([19]; first compound 20 µM) was 0.678. For the same compound, the relative viability ([20]; first compound 0.2 µM) was 0.228, the relative viability ([20]; first compound 0.6325 µM) was 0.338 and the relative viability ([20]; first compound 2 µM) was 0.32. The relative viability ([20]; first compound 6.325 µM) was 0.294, the relative viability ([20]; first compound 20 µM) was 0.167 and the relative viability ([21]; first compound 0.2 µM) was 0.58. For the same compound, the relative viability ([21]; first compound 0.6325 µM) was 0.684, the relative viability ([21]; first compound 2 µM) was 0.408 and the relative viability ([21]; first compound 6.325 µM) was 0.405. It also gave a relative viability ([21]; first compound 20 µM) of 0.349.
